Key:
Assay type in all cases: cell-based
COX-1 mRNA expression = assay: COX-1 RT-PCR in serum-free MDA-MB-231 cells; details: TPA alone versus control; FIG. 11
Experimental: (§1) MDA-MB-231 cells were cultured in supplemented medium, then the cells were incubated at 37° C., CO2 5%. MDA-MB-231 cells were cultured in 6-well plates. A day before treatment administration, medium was changed with serum-free medium for 24 hours. Treatment administration was done by administering various doses of Phaleria macrocarpa extract dissolved in organic solvent. RNA isolation was conducted using Trizol. The RNAs then were used in RT-PCR process using specific primer for each gene we used. RT-PCR reactions were performed in PCR machines with optimized conditions. RT-PCR products were analyzed using electrophoresis technique on agarose gel 2%, and quantified using Chemidoc.

VEGF-C mRNA expression = assay: VEGF-C RT-PCR in serum-free MDA-MB-231 cells; details: TPA versus control, serum-free medium; FIG. 13
Experimental: as §1

cPLA2 mRNA expression = assay: cPLA2 RT-PCR in serum-free MDA-MB-231 cells; details: TPA versus control, serum-free medium; FIG. 12
Experimental: as §1

CCCCCCCCCCCCCC(=O)O[C@@H]1[C@@H](C)[C@@]2(O)[C@@H](C=C(CO)C[C@]3(O)C(=O)C(C)=C[C@@H]23)[C@@H]2C(C)(C)[C@]12OC(C)=O [TPA]
mRNA expression of COX-1 (COX-1 mRNA expression): did not show any significant differences compared to control | VEGF-C gene in mRNA level (VEGF-C mRNA expression): significant increase of VEGF-C gene | cPLA2 mRNA expression (cPLA2 mRNA expression): increase in cPLA2 mRNA expression significantly
